Assay results as given in patent publication US20100286092A1, “BETA-LACTAMASE INHIBITORS” (priority 2007, published 2010).

Assays:
Conditions in all cases: in the presence of a fixed amount (8 μg/mL) of Ceftazidime; CAMHB, 16-20 hours at 37° C.
[1] = system: E. coli expressing the Class A ESBL SHV-5; format: cell-based
Excerpt: (§1) To determine the ability of test compounds to potentiate the inhibition of the growth of bacterial strains producing beta-lactamase enzymes, classic cell based screening assays were employed. Four bacteria strains producing beta-lactamase enzymes were used: K. pneumoniae expressing the Class A Extended Spectrum Beta-Lactamase (ESBL) CTX-M-15, E. coli expressing the Class A ESBL SHV-5, E. cloacae expressing the Class C P99+, and K. pneumoniae expressing the Class A carbapenemase KPC-2. In order to evaluate the ability of test compounds to inhibit beta-lactamase activity, Applicants used a modification of the broth microdilution assay. The assay was conducted in Cation Adjusted Mueller Hinton Broth (CAMHB, BD #212322, BD Diagnostic Systems, Sparks, Md.). Bacteria strains were grown for 3-5 hours in CAMBH broth. All four strains were grown in presence of 50 μg/mL ampicillin to ensure resistance is maintained. In the meantime, test compounds were diluted in DMSO to a 0.1 mg/mL stock. The compounds were added to a microtiter plate and were diluted in 2-fold serial dilutions in CAMHB in a final concentration range of 8 μg/mL to 0.015 μg/ml. An overlay of CAMHB containing a cephalosporin was added to the compounds at a final static concentration of 8 μg/ml. […] Each of these compound plates are made in quadruplicate, one for each bacteria strain. In addition to the titration of test compounds the MICs of a panel of cephalosporins is also tested to ensure the strains are behaving consistently from test to test. Once the test compound and cephalosporin are added the plates can be inoculated. Inocula are conducted according to CLSI broth microdilution method. After inoculation the plates are incubated for 16-20 hours at 37° C. then the Minimal Inhibitory Concentration (MIC) of the test compound is determined visually.
(§2) Using the methodology described above, examples of the current invention were evaluated for their ability to inhibit the growth of β-lactamase producing bacteria in the presence of a β-lactam antibiotic. […] NT=Not Tested.

[2] = system: K. pneumoniae expressing the Class A Extended Spectrum Beta-Lactamase (ESBL) CTX-M-15; format: cell-based
Excerpt: as §1, §2

[3] = system: K. pneumoniae expressing the Class A carbapenemase KPC-2
Excerpt: as §1, §2

[4] = system: E. cloacae expressing the Class C P99+; format: cell-based
Excerpt: as §1, §2

SMILES	MIC of example compound, E. coli SHV-5 + 8 μg/mL CAZ [1]	MIC of example compound, K. pneumoniae CTX-M-15 + 8 μg/mL CAZ [2]	MIC of example compound, K. pneumoniae KPC-2 + 8 μg/mL CAZ [3]	MIC of example compound, E. cloacae P99 AmpC + 8 μg/mL CAZ [4]
Cc1nc(-c2cccc(C(=O)N[C@@H](Cc3cccc(C(=O)O)c3O)B(O)O)c2)no1 [Example 47, (1R)-1-[3-(5-methyl-[1,2,4]oxadiazol-3-yl)-benzoyl]-amino-1-(3-carboxy-2-hydroxy)benzyl-methylboronic acid]	A (A represents an MIC>8 μg/mL)	A (A represents an MIC>8 μg/mL)	–	–
O=C(O)c1cccc(C[C@H](NC(=O)c2c(Cl)cccc2Cl)B(O)O)c1O [Example 43, (1R)-1-(2,6-Dichlorobenzoyl)-amino-1-(3-carboxy-2-hydroxy)benzyl-methylboronic acid]	A (A represents an MIC>8 μg/mL)	A (A represents an MIC>8 μg/mL)	A (A represents an MIC>8 μg/mL)	–
NCCC(=O)N[C@@H](Cc1cccc(C(=O)O)c1O)B(O)O.O=CO [Example 38, (1R)-1-(3-aminopropanoylamino)-2-(2-hydroxy-3-carboxyphenyl)ethyl-1-boronic acid formate salt]	A (A represents an MIC>8 μg/mL)	A (A represents an MIC>8 μg/mL)	C (C represents an MIC of <1 μg/mL)	–
CCCCCC(=O)N[C@@H](Cc1cccc(C(=O)O)c1O)B(O)O [Example 21, (1R)-1-Hexanoylamino-(3-carboxy-2-hydroxy)benzyl-methylboronic acid]	C (C represents an MIC of <1 μg/mL)	C (C represents an MIC of <1 μg/mL)	C (C represents an MIC of <1 μg/mL)	–
Cn1nc(-c2ccccc2)cc1C(=O)N[C@@H](Cc1cccc(C(=O)O)c1O)B(O)O [Example 44, (1R)-1-(1-methyl-3-phenyl-1H-pyrazole-5-carbonyl-amino)-2-(2-hydroxy-3-carboxyphenyl)ethyl-1-boronic acid]	A (A represents an MIC>8 μg/mL)	A (A represents an MIC>8 μg/mL)	–	–
COc1ccccc1C(=O)N[C@@H](Cc1cccc(C(=O)O)c1O)B(O)O [Example 34, (1R)-1-(2-methoxybenzoylamino)-2-(2-hydroxy-3-carboxyphenyl)ethyl-1-boronic acid]	A (A represents an MIC>8 μg/mL)	–	C (C represents an MIC of <1 μg/mL)	–
O=C(O)c1cccc(C[C@H](NC(=O)C2CC2)B(O)O)c1O [Example 20, (1R)-1-Cyclopropanecarbonyl-amino-1-(3-carboxy-2-hydroxy)benzyl-methylboronic acid]	–	C (C represents an MIC of <1 μg/mL)	C (C represents an MIC of <1 μg/mL)	C (C represents an MIC of <1 μg/mL)
O=C(Cc1cccs1)N[C@@H](Cc1cccc(C(=O)O)c1O)B(O)O [Example 1, (1R)-1-(2-thiophene-2-yl-acetylamino)-2-(2-hydroxy-3-carboxyphenyl)ethyl-1-boronic acid]	C (C represents an MIC of <1 μg/mL)	C (C represents an MIC of <1 μg/mL)	C (C represents an MIC of <1 μg/mL)	–
O=C(Cc1cc(Br)cs1)N[C@@H](Cc1cccc(C(=O)O)c1O)B(O)O [Example 9, (1R)-1-(2-(4-bromo-thiophen-2-nyl)acetylamino)-2-(2-hydroxy-3-carboxyphenyl)ethyl-1-boronic acid]	C (C represents an MIC of <1 μg/mL)	C (C represents an MIC of <1 μg/mL)	C (C represents an MIC of <1 μg/mL)	–
COc1cccc(C(=O)N[C@@H](Cc2cccc(C(=O)O)c2O)B(O)O)c1 [Example 29, (1R)-1-(3-methoxybenzoylamino)-2-(2-hydroxy-3-carboxyphenyl)ethyl-1-boronic acid]	C (C represents an MIC of <1 μg/mL)	C (C represents an MIC of <1 μg/mL)	C (C represents an MIC of <1 μg/mL)	–
O=C(N[C@@H](Cc1cccc(C(=O)O)c1O)B(O)O)c1ccno1 [Example 46, (1R)-1-(isoxazole-5-carbonyl-amino)-2-(2-hydroxy-3-carboxyphenyl)ethyl-1-boronic acid]	–	C (C represents an MIC of <1 μg/mL)	C (C represents an MIC of <1 μg/mL)	C (C represents an MIC of <1 μg/mL)
O=C(O)c1cccc(C[C@H](NC(=O)C2CCCC2)B(O)O)c1O [Example 15, (1R)-1-Cyclopentanecarbonylamino-(3-carboxy-2-hydroxy)benzyl-methylboronic acid]	–	C (C represents an MIC of <1 μg/mL)	C (C represents an MIC of <1 μg/mL)	C (C represents an MIC of <1 μg/mL)
O=C(N[C@@H](Cc1cccc(C(=O)O)c1O)B(O)O)c1ccccc1 [Example 13, (1R)-1-Benzoylamino-1-(3-carboxy-2-hydroxy)benzyl-methylboronic acid]	–	C (C represents an MIC of <1 μg/mL)	C (C represents an MIC of <1 μg/mL)	C (C represents an MIC of <1 μg/mL)
O=C(N[C@@H](Cc1cccc(C(=O)O)c1O)B(O)O)c1cccs1 [Example 11, (1R)-1-(thiophene-2-carbonyl-amino)-2-(2-hydroxy-3-carboxyphenyl)ethyl-1-boronic acid]	–	C (C represents an MIC of <1 μg/mL)	C (C represents an MIC of <1 μg/mL)	C (C represents an MIC of <1 μg/mL)
O=C(N[C@@H](Cc1cccc(C(=O)O)c1O)B(O)O)c1ccc(N2CCOCC2)nc1 [Example 48, (1R)-1-(6-morpholin-4-yl-pyridine-3-carbonyl)-amino-1-(3-carboxy-2-hydroxy)benzyl-methylboronic acid]	A (A represents an MIC>8 μg/mL)	–	C (C represents an MIC of <1 μg/mL)	–
CCC(=O)N[C@@H](Cc1cccc(C(=O)O)c1O)B(O)O [Example 16, (1R)-1-(propionylamino)-2-(2-hydroxy-3-carboxyphenyl)ethyl-1-boronic acid]	–	C (C represents an MIC of <1 μg/mL)	C (C represents an MIC of <1 μg/mL)	C (C represents an MIC of <1 μg/mL)
O=C(CCC(=O)c1cccs1)N[C@@H](Cc1cccc(C(=O)O)c1O)B(O)O [Example 5, (1R)-1-(4-oxo-4-thiophen-2-yl-butyrylamino)-2-(2-hydroxy-3-carboxyphenyl)ethyl-1-boronic acid]	–	C (C represents an MIC of <1 μg/mL)	C (C represents an MIC of <1 μg/mL)	C (C represents an MIC of <1 μg/mL)
CC(=O)NCC(=O)N[C@@H](Cc1cccc(C(=O)O)c1O)B(O)O [Example 37, (1R)-1-(2-acetamidoacetylamino)-2-(2-hydroxy-3-carboxyphenyl)ethyl-1-boronic acid]	–	C (C represents an MIC of <1 μg/mL)	C (C represents an MIC of <1 μg/mL)	C (C represents an MIC of <1 μg/mL)
